US20240398737A1, “FUNCTIONALIZED LONG-CHAIN HYDROCARBON MONO- AND DI-CARBOXYLIC ACIDS AND DERIVATIVES THEREOF, AND THEIR USE FOR THE PREVENTION OR TREATMENT OF DISEASE” (Espervita Therapeutics, Inc., priority 2021, published 2024)
“And” between values parts separate entries of the source, which are not always exact repeats. Identical values can stand only once.

Columns and labels:
[1] = target: Human ACC2 (Homo sapiens (Human), UniProt O00763); experiment: ACC2 enzymatic assay (ADP-Glo); assay type: biochemical; design: key to Compound IC50 (M) ACC2: *: No detectable inhibition or compound activity; settings: recombinant human ACC2 1 nM; 10 concentrations from 300 μM; Runs 1-3
Procedure: Human ACC1 (Cat #50202 Lot #120830) and ACC2 (Cat #50201 Lot #160217) were obtained from BPS Biosciences, San Diego, CA 92121. Human ACC1 had C-terminal flag and His-tags with a MW of 270 KDa after purification from Baculovirus infected Sf9 cell expression system and came as a solution in 50 mM Tris-HCl, pH 8.0, 500 mM NaCl, 10% glycerol, 1 mM DTT, 100 μg/ml FLAG peptide with 70% purity. The stock concentration was 0.25 mg/ml corresponding to 0.926 μM. Human ACC2 was also purified from Baculovirus infected Sf9 expression system. […] The stock concentration was 0.1 mg/ml corresponding to 0.36 μM. The assay buffer for measuring the activity of ACC contained: 30 mM HEPES (pH 7.4), 2 mM MgCl2, 0.01% Brij35, 2 mM DTT, 1% DMSO (solvent for compound). For ACC1 and ACC2 assays, the following concentrations of substrate and cofactors were used: 12 mM NaHCO3, 10 μM acetyl CoA, 10 μM ATP, and 2 mM K-citrate. The recombinant human enzyme was used at 5 nM for ACC1 and 1 nM for ACC2. In brief, enzyme alone in the above buffer without substrate was used for background. All test materials were dissolved in 100% DMSO using acoustic technology (Echo550). The prepared solution was preincubated for 15 min followed by the addition of 5 μL/well of ADP standard. ATP was then added to start the reaction. The assay contents were spun and briefly shaken followed by incubation at room temperature for 1 h. At the end of completion of assay, 5 μL of ADP-Glo was added to each well to stop the reaction. The contents were mixed, spun and incubated at room temperature for 40 min followed by the addition of 10 μL/well of ADP detection reagent. The contents were spun, mixed and covered with plastic to measure luminescence. […] The light generated, measured in a luminometer, correlates to the amount of ADP generated in the ACC assay, which is indicative of ACC activity.
The enzyme concentrations for ACC1 and ACC2 were 5 nM and 1 nM, respectively.
Data represent nM or μM ADP produced, % Activity (relative to no inhibitor controls), and curve fits were performed by GraphPad Prism software. The IC50 concentration-response curves were generated for both the ACC1 and ACC2 assays using recombinant human ACC.

[2] = test system: hepatic de novo lipogenesis; experiment: Hepatic de novo lipogenesis (14C-glucose) in a murine model of NASH; assay type: in vivo, mouse; settings: for Hepatic de novo lipogenesis, Mean (DPM/gram liver tissue/hour): high fat/high fructose fed mice
Procedure: Experimental Protocol. FIG. 22 summarizes the study protocol. Mice were dosed daily for 7 days with a single dose of either Compound I-32 or Compound I-1 at a dose of 10 mg/kg, 30 mg/kg or 60 mg/kg. On the 8th day of the experiment mice receive final dose of Compound I-32 or Compound I-1, followed one hour later by an I.P. bolus of 14—C Glucose.
C57BL6J (8 weeks of age) were obtained for the Jackson Laboratory and fed a normal chow diet upon arrival. At ˜10 weeks of age, mice were given a diet containing high fat and high fructose (Rodent Diet with 40 kcal % Fat (Mostly Palm Oil), 20 kcal % fructose, and 0.02% cholesterol, obtained from Research Diets, Product Code: D19101102) and housed at thermoneutral conditions (26-29° C.). After 7-8 months the mice were divided into 7 groups and received a single daily dose via gavage of either vehicle (1.5% CMC and 0.2% Tween-20) or vehicle containing Compound I-32 or Compound I-1 at a concentration of 10 mg/kg, 30 mg/kg, or 60 mg/kg for 7 days. On the morning of day 8, animals received a final dose and after 1 hour ^14C-glucose (PerkinElmer) was administered at a concentration of 12 μCi per mouse in a volume of 0.1 ml in 0.9% saline I.P. One hour after ^14C-glucose was given, animals were anesthetized by I.P. injection of Ketamine/Xylazine (150 mg/12.4 mg/kg, respectively). Blood was drawn through cardiac puncture; the liver was removed, and a sample was from the left lobe and frozen in liquid nitrogen. Liver tissue was chipped on dry-ice and the weight of the chip weight recorded (30-50 mg of tissue). Liver tissue was homogenized in 1 ml of 2:1 chloroform: methanol using a bead homogenizer at 5000 rpm for 2×12 seconds. Samples were incubated with gentle shaking at 4° C. for 2 hours, vortexed for 2×12 seconds, and then centrifuge at 7000 rpm for 10 minutes at 4° C. The supernatant was transferred to a 1.5 ml Eppendorf and 200 μl of 0.9% saline was added. Samples were vortexed for 2×12 seconds and centrifuged at 3000 rpm for 10 minutes at 4° C. 200 μl of the lower organic phase was removed and added to 5 ml of scintillation fluid. The amount radioactivity in the sample was measured by scintillation counting. The number of disintegrations per minute (DPM) were determined over a 5-minute period and normalized to the amount of liver tissue. 5-10 μl of plasma obtained at termination was also counted and lipid/gram tissue counts were normalized to plasma counts. Statistical comparisons were carried out using a one-way ANOVA followed by Dunnett's post hoc test using GraphPad Prism 8 software. A p-value of less than or equal to 0.05 was used as the criterion of significance.

[3] = target: DDR2 (Homo sapiens (Human), UniProt Q16832); experiment: Wild type kinase screen: DDR2; assay type: biochemical; settings: compound at 10 μM, 10 μM ATP, Data 1 and Data 2 duplicates
[4] = 10 mg/kg daily oral gavage for 7 days
[5] = 30 mg/kg daily oral gavage for 7 days
[6] = 60 mg/kg daily oral gavage for 7 days

Sequence of DDR2 (Q16832 22-855, species assumed): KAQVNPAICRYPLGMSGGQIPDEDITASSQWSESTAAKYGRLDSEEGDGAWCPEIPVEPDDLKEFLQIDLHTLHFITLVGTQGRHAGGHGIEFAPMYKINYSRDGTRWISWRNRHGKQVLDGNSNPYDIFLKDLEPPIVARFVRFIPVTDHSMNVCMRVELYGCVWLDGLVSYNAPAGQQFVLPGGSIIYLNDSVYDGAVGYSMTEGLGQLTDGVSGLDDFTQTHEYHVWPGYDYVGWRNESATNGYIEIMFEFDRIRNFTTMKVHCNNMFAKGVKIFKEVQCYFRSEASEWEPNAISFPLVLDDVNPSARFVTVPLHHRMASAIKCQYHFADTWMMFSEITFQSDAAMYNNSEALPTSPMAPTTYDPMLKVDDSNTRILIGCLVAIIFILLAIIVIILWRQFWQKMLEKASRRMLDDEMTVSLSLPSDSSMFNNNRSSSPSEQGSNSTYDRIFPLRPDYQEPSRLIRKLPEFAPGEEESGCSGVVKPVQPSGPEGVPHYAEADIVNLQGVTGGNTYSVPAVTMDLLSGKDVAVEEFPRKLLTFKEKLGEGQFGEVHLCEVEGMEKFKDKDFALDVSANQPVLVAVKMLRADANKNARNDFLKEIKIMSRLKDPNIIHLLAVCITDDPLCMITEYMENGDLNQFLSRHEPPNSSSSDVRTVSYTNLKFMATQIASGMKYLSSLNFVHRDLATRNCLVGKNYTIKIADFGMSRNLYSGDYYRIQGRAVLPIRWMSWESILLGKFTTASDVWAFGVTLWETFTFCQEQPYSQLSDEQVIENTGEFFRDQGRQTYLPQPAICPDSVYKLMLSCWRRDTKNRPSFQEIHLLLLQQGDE
Sequence of Human ACC2 (O00763 whole entry): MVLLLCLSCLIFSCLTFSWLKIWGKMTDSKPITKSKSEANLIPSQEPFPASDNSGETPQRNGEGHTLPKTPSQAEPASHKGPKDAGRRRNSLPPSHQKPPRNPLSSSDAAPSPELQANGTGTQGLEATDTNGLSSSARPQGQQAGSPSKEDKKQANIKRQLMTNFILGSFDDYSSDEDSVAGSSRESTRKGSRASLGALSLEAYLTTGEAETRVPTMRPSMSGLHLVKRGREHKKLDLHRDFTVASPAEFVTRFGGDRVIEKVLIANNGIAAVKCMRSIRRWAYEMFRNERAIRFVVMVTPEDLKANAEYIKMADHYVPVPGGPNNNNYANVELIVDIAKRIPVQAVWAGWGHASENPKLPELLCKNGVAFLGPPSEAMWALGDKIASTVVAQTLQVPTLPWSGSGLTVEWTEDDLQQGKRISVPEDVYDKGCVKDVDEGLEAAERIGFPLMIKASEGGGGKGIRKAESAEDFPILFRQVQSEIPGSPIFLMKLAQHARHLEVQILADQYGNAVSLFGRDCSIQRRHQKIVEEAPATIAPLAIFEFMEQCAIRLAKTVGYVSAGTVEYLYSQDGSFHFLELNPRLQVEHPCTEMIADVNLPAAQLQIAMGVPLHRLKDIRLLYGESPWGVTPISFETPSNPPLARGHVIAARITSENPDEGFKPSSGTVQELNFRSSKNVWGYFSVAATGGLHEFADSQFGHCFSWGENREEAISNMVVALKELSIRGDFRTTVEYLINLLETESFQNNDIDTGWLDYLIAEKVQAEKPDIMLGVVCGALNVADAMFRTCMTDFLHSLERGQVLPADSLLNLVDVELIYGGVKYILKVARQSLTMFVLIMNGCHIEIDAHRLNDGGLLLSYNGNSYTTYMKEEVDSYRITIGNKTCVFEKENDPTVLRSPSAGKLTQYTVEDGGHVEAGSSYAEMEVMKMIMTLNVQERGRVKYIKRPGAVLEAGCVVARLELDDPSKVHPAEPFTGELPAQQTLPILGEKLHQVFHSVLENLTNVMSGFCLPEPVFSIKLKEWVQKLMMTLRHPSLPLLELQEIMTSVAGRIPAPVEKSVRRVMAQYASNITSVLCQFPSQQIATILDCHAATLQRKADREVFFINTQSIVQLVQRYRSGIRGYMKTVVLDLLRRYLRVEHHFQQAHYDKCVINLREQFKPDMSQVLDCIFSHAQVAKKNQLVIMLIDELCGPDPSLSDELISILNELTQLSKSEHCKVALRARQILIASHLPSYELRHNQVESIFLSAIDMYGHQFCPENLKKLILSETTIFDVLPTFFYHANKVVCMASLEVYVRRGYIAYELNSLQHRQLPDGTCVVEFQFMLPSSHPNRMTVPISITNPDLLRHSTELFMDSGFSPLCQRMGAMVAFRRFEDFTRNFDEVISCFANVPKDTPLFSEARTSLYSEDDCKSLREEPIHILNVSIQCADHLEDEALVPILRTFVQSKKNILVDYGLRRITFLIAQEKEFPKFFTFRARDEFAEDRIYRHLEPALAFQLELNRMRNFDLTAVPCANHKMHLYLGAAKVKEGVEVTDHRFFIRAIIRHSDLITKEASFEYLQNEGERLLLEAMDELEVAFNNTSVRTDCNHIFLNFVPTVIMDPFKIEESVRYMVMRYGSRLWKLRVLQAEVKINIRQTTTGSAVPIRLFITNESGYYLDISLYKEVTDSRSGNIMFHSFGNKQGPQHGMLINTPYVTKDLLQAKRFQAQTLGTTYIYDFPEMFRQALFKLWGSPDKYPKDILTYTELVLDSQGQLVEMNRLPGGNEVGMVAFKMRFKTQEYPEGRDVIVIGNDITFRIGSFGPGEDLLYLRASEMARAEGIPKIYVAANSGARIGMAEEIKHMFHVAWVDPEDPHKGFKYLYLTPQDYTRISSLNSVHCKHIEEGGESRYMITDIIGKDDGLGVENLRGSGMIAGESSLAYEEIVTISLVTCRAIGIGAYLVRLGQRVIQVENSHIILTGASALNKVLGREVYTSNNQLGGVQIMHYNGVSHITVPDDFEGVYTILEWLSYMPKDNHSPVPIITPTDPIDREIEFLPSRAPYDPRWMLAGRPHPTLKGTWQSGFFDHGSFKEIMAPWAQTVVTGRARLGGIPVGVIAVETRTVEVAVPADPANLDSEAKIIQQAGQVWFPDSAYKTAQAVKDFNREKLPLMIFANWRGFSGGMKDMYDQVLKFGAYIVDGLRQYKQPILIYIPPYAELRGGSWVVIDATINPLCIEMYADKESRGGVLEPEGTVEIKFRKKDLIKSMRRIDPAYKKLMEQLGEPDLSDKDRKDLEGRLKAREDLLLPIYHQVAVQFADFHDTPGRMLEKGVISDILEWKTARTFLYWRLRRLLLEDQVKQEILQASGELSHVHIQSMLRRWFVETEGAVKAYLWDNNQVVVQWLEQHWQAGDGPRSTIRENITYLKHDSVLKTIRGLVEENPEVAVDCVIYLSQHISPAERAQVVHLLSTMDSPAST

Row | Structure (SMILES) | Compound IC50 (M) ACC2 [1] | Hepatic de novo lipogenesis, Mean (DPM/gram liver tissue/hour) [2, 4] | Hepatic de novo lipogenesis, % change from vehicle control (inhibition) [2, 5] | Hepatic de novo lipogenesis, Mean (DPM/gram liver tissue/hour) [2, 5] | Hepatic de novo lipogenesis, % change from vehicle control (inhibition) [2, 6] | Hepatic de novo lipogenesis, Mean (DPM/gram liver tissue/hour) [2, 6] | % Enzyme Activity (relative to DMSO controls) [3] [%] | Hepatic de novo lipogenesis, % change from vehicle control (inhibition) [2, 4] [%]
1 | CC(C)(CCCCc1ccc(CCCCC(C)(C)C(=O)O)cc1)C(=O)O [Compound I-1, 6-[4-(5-carboxy-5-methylhexyl)-phenyl]-2,2-dimethylhexanoic acid] | * | 81.25 DPM/gram liver tissue/hour | 56% and 55.65% | 43.83 DPM/gram liver tissue/hour | 69% and 68.96% | 30.68 DPM/gram liver tissue/hour | 69.84 | 
2 | CC(C)(CCCCc1cccc(CCCCC(C)(C)C(=O)O)c1)C(=O)O [Compound I-32, 6-[3-(5-carboxy-5-methylhexyl)-phenyl]-2,2-dimethylhexanoic acid] | * | 50.61 DPM/gram liver tissue/hour | 37.42% | 61.85 DPM/gram liver tissue/hour | 53% and 52.90% | 46.55 DPM/gram liver tissue/hour | 85.83 | 48.79
